Laboratory results as given in patent US20110105496A1, “Methods For The Treatment Of Myosin Heavy Chain-Mediated Conditions Using 4,7-Dihydrothieno[2,3-B]Pyridine Compounds” (priority 2005, published 2011).

System: alpha-MyHC
Experiment: alpha-MyHC cytoblot process in neonatal rat ventricular myocytes (NRVM)
Type: cell-based
Conditions: NRVM, 72 hours; for EC50: alpha-MyHC cytoblot
[1] = Table 1, maximum of dose response fit, low control = vehicle only
[2] = Table 2 (esters), maximum of dose response fit

SMILES | EC50 (Table 2 (esters)) [nM] | Max Plateau [2] | other results
CCC(=O)C1=C(CC)Nc2sc(C(=O)c3ccc(F)c(F)c3)c(N)c2C1c1ccccc1F (stereo not drawn) [Compound 108, 1-[3-amino-2-(3,4 difluoro-benzoyl)-6-ethyl-4-(2 fluoro-phenyl)-4,7 dihydro-thieno[2,3-b]pyridine-5-yl]propan-1-one] | – | – | Max Plateau [1]: 266.30 ± 58.14 per cent fraction of low control
CCC(=O)C1=C(CC)Nc2sc(C(=O)c3ccc(C#N)cc3)c(N)c2C1c1ccccc1 (stereo not drawn) [Compound 112] | – | – | Max Plateau [1]: 266.67 ± 57.74 per cent fraction of low control
CCOC(=O)C1=C(C)Nc2sc(C(=O)c3ccc(Cl)c(Cl)c3)c(N)c2C1c1ccccc1 (stereo not drawn) [Compound 113] | 68 | 256.38 per cent fraction of low control | –
COC(=O)C1=C(C(C)C)Nc2sc(C(=O)c3ccc(Cl)c(Cl)c3)c(N)c2C1c1ccccc1 (stereo not drawn) [Compound 116] | 70 | 107.57 per cent fraction of low control | –
COCCOC(=O)C1=C(C)Nc2sc(C(=O)c3ccc(Cl)c(Cl)c3)c(N)c2C1c1ccccc1 (stereo not drawn) [Compound 119] | 142 | 234.93 per cent fraction of low control | –
COCC1=C(C(=O)OC)C(c2ccccc2)c2c(sc(C(=O)c3ccc(Cl)c(Cl)c3)c2N)N1 (stereo not drawn) [Compound 120] | 157 | 140.79 per cent fraction of low control | –
CC1=C(C(=O)OCCN2CCOCC2)C(c2ccccc2)c2c(sc(C(=O)c3ccc(Cl)c(Cl)c3)c2N)N1 (stereo not drawn) [Compound 126] | 210 | 193.06 ± 11.02 per cent fraction of low control | –
C=CCOC(=O)C1=C(C)Nc2sc(C(=O)c3ccc(Cl)c(Cl)c3)c(N)c2C1c1ccccc1 (stereo not drawn) [Compound 127] | 54 | 195.71 ± 29.42 per cent fraction of low control | –
CC1=C(C(=O)OCC2CCCN2C)C(c2ccccc2)c2c(sc(C(=O)c3ccc(Cl)c(Cl)c3)c2N)N1 (stereo not drawn) [Compound 129] | 4580 | 150.08 ± 9.89 per cent fraction of low control | –
COC(=O)C1=C(C(C)(C)C)Nc2sc(C(=O)c3ccc(Cl)c(Cl)c3)c(N)c2C1c1ccccc1 (stereo not drawn) [Compound 131] | 2900 | 158.97 per cent fraction of low control | –
COC(=O)C1=C(C2CC2)Nc2sc(C(=O)c3ccc(Cl)c(Cl)c3)c(N)c2C1c1ccccc1 (stereo not drawn) [Compound 133] | 71.5 | 180.24 per cent fraction of low control | –
COC(=O)C1=C(C(C)C)Nc2sc(C(=O)c3ccc(Cl)c(Cl)c3)c(N)c2C1c1cccc([N+](=O)[O-])c1 (stereo not drawn) [Compound 134] | – | 98.33 per cent fraction of low control | –
CC1=C(C(=O)OC(C)C)C(c2ccccc2)c2c(sc(C(=O)c3ccc(Cl)c(Cl)c3)c2N)N1 (stereo not drawn) [Compound 135] | 118 | 186.32 per cent fraction of low control | –
CCC1=C(C(=O)OC)C(c2c(F)cccc2F)c2c(sc(C(=O)c3ccc(Cl)c(Cl)c3)c2N)N1 (stereo not drawn) [Compound 137] | 15.6 | 213.90 per cent fraction of low control | –
CCC1=C(C(=O)OC)C(c2ccccc2)c2c(sc(C(=O)c3cccc([N+](=O)[O-])c3)c2N)N1 (stereo not drawn) [Compound 139] | 6.91 | 281.08 per cent fraction of low control | –
CCC1=C(C(=O)OC)C(c2ccccc2F)c2c(sc(C(=O)c3cccc([N+](=O)[O-])c3)c2N)N1 (stereo not drawn) [Compound 140] | 2.42 | 266.63 per cent fraction of low control | –
CCC1=C(C(=O)OC)C(c2c(F)cccc2F)c2c(sc(C(=O)c3cccc([N+](=O)[O-])c3)c2N)N1 (stereo not drawn) [Compound 141] | 14.3 | 261.69 per cent fraction of low control | –
CCOC(=O)C1=C(CC)Nc2sc(C(=O)c3ccc(Cl)c(Cl)c3)c(N)c2C1c1ccccc1F (stereo not drawn) [Compound 142] | 6.78 | 194.32 per cent fraction of low control | –
CCC1=C(C(=O)OC)C(c2ccccc2)c2c(sc(C(=O)c3cccc(C#N)c3)c2N)N1 (stereo not drawn) [Compound 143] | 5.24 | 290.53 per cent fraction of low control | –
COC(=O)C1=C(C2CC2)Nc2sc(C(=O)c3ccc(Cl)c(Cl)c3)c(N)c2C1c1ccccc1F (stereo not drawn) [Compound 144] | 63.3 | 187.17 per cent fraction of low control | –
CCOC(=O)C1=C(CC)Nc2sc(C(=O)c3ccc(Cl)cc3Cl)c(N)c2C1c1ccccc1 (stereo not drawn) [Compound 145] | 123 | 224.48 per cent fraction of low control | –
CCOC(=O)C1=C(CC)Nc2sc(C(=O)c3cc(Cl)ccc3Cl)c(N)c2C1c1ccccc1 (stereo not drawn) [Compound 146] | 4.03 | 213.49 per cent fraction of low control | –
CCOC(=O)C1=C(CC)Nc2sc(C(=O)c3cc(C(F)(F)F)cc(C(F)(F)F)c3)c(N)c2C1c1ccccc1 (stereo not drawn) [Compound 149] | 11.1 | 207.18 per cent fraction of low control | –
CCC1=C(C(=O)OC)C(c2ccccc2F)c2c(sc(C(=O)c3ccc(Cl)c(C)c3)c2N)N1 (stereo not drawn) [Compound 150] | 21.4 | 228.28 per cent fraction of low control | –

SMILES | EC50 (Table 2 (esters)) [nM] | Max Plateau [2] | other results
CCOC(=O)C1=C(CC)Nc2sc(C(=O)c3cc(F)cc(F)c3)c(N)c2C1c1ccccc1 (stereo not drawn) [Compound 151] | 10.1 | 273.61 per cent fraction of low control | –
CCOC(=O)C1=C(CC)Nc2sc(C(=O)c3cccc(C(=O)O)c3)c(N)c2C1c1ccccc1 (stereo not drawn) [Compound 152] | 2910 | 238.69 per cent fraction of low control | –
CCC1=C(C(=O)OC)C(c2ccc(F)cc2F)c2c(sc(C(=O)c3ccc(Cl)c(Cl)c3)c2N)N1 (stereo not drawn) [Compound 153] | 15.3 | 234.66 per cent fraction of low control | –
COC(=O)C1=C(CCc2ccccc2)Nc2sc(C(=O)c3ccc(Cl)c(Cl)c3)c(N)c2C1c1ccccc1F (stereo not drawn) [Compound 154] | 303 | 125.87 per cent fraction of low control | –
CCC1=C(C(=O)OC)C(c2cccc(Cl)c2F)c2c(sc(C(=O)c3ccc(Cl)c(Cl)c3)c2N)N1 (stereo not drawn) [Compound 155] | 19.3 | 224.86 per cent fraction of low control | –
CCC1=C(C(=O)OC)C(c2cccc(Cl)c2F)c2c(sc(C(=O)c3cccc([N+](=O)[O-])c3)c2N)N1 (stereo not drawn) [Compound 156] | 3.69 | 243.78 per cent fraction of low control | –
CCC1=C(C(=O)OC2CCCCC2)C(c2ccccc2)c2c(sc(C(=O)c3ccc(Cl)c(Cl)c3)c2N)N1 (stereo not drawn) [Compound 160] | 75.4 | 186.95 per cent fraction of low control | –
CCC1=C(C(=O)OCC(C)C)C(c2ccccc2)c2c(sc(C(=O)c3ccc(Cl)c(Cl)c3)c2N)N1 (stereo not drawn) [Compound 161] | 35.4 | 232.35 per cent fraction of low control | –
CCC1=C(C(=O)OC)C(c2ccccc2F)c2c(sc(C(=O)c3cccc(C#N)c3)c2N)N1 (stereo not drawn) [Compound 164] | 2.83 | 279.90 per cent fraction of low control | –
CCC1=C(C(=O)OC)C(c2ccccc2F)c2c(sc(C(=O)c3cccc(Cl)c3)c2N)N1 (stereo not drawn) [Compound 167] | 111000 | 255.95 per cent fraction of low control | –
CCOC(=O)C1=C(CC)Nc2sc(C(=O)c3ccc(Cl)c(Cl)c3)c(N)c2C1c1ccncc1F (stereo not drawn) [Compound 168] | 7.12 | 239.64 per cent fraction of low control | –
CCOC(=O)C1=C(CC)Nc2sc(C(=O)c3ccc(Cl)c(Cl)c3)c(N)c2C1c1ccncc1Cl (stereo not drawn) [Compound 169] | 4.95 | 261.04 per cent fraction of low control | –
CCC1=C(C(=O)OC)C(c2cc(F)cc(F)c2)c2c(sc(C(=O)c3ccc(F)c(F)c3)c2N)N1 (stereo not drawn) [Compound 170] | 1.89 | 262.16 per cent fraction of low control | –
CCC1=C(C(=O)OC)C(c2cc(F)cc(F)c2)c2c(sc(C(=O)c3ccc(Cl)c(Cl)c3)c2N)N1 (stereo not drawn) [Compound 171] | 0.828 | 296.79 per cent fraction of low control | –
CCC1=C(C(=O)OC)C(c2cc(F)cc(F)c2)c2c(sc(C(=O)c3ccccc3)c2N)N1 (stereo not drawn) [Compound 172] | 0.478 | 304.08 per cent fraction of low control | –
CCOC(=O)C1=C(CC)Nc2sc(C(=O)c3ccc(F)c(F)c3)c(N)c2C1c1ccncc1F (stereo not drawn) [Compound 173] | – | 257.43 per cent fraction of low control | –
CCOC(=O)C1=C(CC)Nc2sc(C(=O)c3cccnc3)c(N)c2C1c1ccncc1F (stereo not drawn) [Compound 174, 3-amino-6-ethyl-4-(3 fluoro-pyridin-4-yl)-2-(pyridine-3-carbonyl)-4,7 dihydro-thieno[2,3-b]pyridine-5-carboxylic acid ethyl ester] | – | 263.57 per cent fraction of low control | –
CCC1=C(C(=O)OCC(C)OC)C(c2ccccc2F)c2c(sc(C(=O)c3cccc(C#N)c3)c2N)N1 (stereo not drawn) [Compound 180] | 63.2 | 279.68 ± 65.32 per cent fraction of low control | –
CCC1=C(C(=O)OC(C)COC)C(c2ccccc2F)c2c(sc(C(=O)c3cccc(Cl)c3)c2N)N1 (stereo not drawn) [Compound 181] | 21 | 240.80 ± 29.53 per cent fraction of low control | –
CCC1=C(C(=O)OC(C)COC)C(c2ccccc2F)c2c(sc(C(=O)c3cccc(C#N)c3)c2N)N1 (stereo not drawn) [Compound 182] | 60.9 | 251.54 ± 25.09 per cent fraction of low control | –
CCC1=C(C(=O)OCC(C)OC)C(c2ccccc2F)c2c(sc(C(=O)c3cccc(C#N)c3)c2N)N1 (stereo not drawn) [Compound 185] | 1710 | 172.89 ± 23.52 per cent fraction of low control | –
CCC1=C(C(=O)OC(C)COC)C(c2ccccc2F)c2c(sc(C(=O)c3cccc(C#N)c3)c2N)N1 (stereo not drawn) [Compound 193] | 77.6 | 230.28 ± 6.46 per cent fraction of low control | –
CCOC(=O)C1=C(C)Nc2sc(C(=O)c3cccc(Br)c3)c(N)c2C1(C)c1ccccc1 (stereo not drawn) [Compound 197] | – | – | EC50 (Rattus norvegicus, Ventricular myocyte, Table 4): 792 nM; Emax (Rattus norvegicus, Ventricular myocyte, Table 4, maximum of dose response fit, read-out: Max Plateau): 160 ± 10.9%
CCOC(=O)C1=C(C)Nc2sc(C(=O)c3ccccc3)c(N)c2C1(C)c1ccccc1 (stereo not drawn) [Compound 206] | – | – | Max Plateau (Table 4, maximum of dose response fit): 169.32 ± 23.07 per cent fraction of low control
